Biological target: Recombinant human HSD17B13 (Homo sapiens (Human), UniProt Q7Z5P4)
Assay: HSD17B13 rapid-fire mass spectrometry assay (RF/MS assay)
Format: biochemical
Settings: inhibition of HSD17B13; LTB4 10 μM, NAD+ 0.5 mM, RT 3 h; IC50 ranges A-E
Text: HSD17B13 rapid-fire mass spectrometry assay (RF/MS assay). Recombinant human HSD17B13 was expressed and purified from sf9 cells at Charles River Labs (Saffron Walden, UK). Leukotriene B4 (Catalog #71160-24-2) and 12-oxoleukotriene B4 (Catalog #20140) were purchased from Cayman Chemicals (Ann Arbor, Michigan.). NAD+ (Catalog #N8285), BSA (Catalog #A7030), DMSO (Catalog #D2650), and Tween-20 (Catalog #11332465001) were purchased from Sigma (St. Louis, MO). Formic acid (Catalog #28905) was from ThermoFisher Scientific and 384 deep well PP microplates (Catalog #784261) were from Greiner Bio-One. In a typical IC50 assay performed in a 384w PP microplate, test compounds (0-100 μM) were incubated with HSD17B13 (80 nM), LTB4 (10 μM), and NAD^+ (0.5 mM) in 10 μL assay buffer (20 mM Tris (pH 7.5), BSA (0.005%), and Tween-20 (0.01%)) at RT for 3 h. The assays were quenched by adding 20 μL of 0.15% aqueous formic acid and the plates were frozen at −80° C. RF/MS analysis was performed at PureHoney Technologies (Billerica, MA) on a RapidFire RF300 system (Agilent Technologies, Inc.) coupled to an API 4000 triple quadrupole mass spectrometer (Sciex) equipped with Agilent RapidFire cartridge type A (C4). The mobile phase was 0.09% formic acid and 0.01% trifluoracetic acid in water (Buffer A) and 0.09% formic acid and 0.01% trifluoracetic acid in 80% aqueous acetonitrile (Buffer B). The RapidFire method conditions were the following: 250 ms aspirate, 3000 ms load/desalt, 4000 ms elute, and 500 ms re-equilibrate. RF-MS/MS was performed in negative polarity (−4500 V), the source temperature was 650° C., and gas 1 and gas 2 settings for nitrogen were set to 50. The curtain gas and collision gas were also nitrogen and were set to 20 and 12, respectively. Leukotriene B4 (335.3) and 12-oxoLeukotriene B4 (333.3) SRM transitions were optimized with Discovery Quant software and extracted ion counts for these analytes were determined.
Data Analysis. HSD17B13 enzyme activity was measured as percent conversion of extracted ion counts and normalized to high and low controls to determine percent residual activity at various concentrations of test compounds. Data were fitted to normalized activity (variable slope) versus concentration fit in GraphPad Prism 7 to determine IC50. All experiments were run in duplicates.
By using above method, the inhibition of HSD17B13 was evaluated for the compounds of Formula (I). IC50 ranges are as follows: A=IC50<0.100 μM; B=0.100 μM<IC50<0.500 μM; C=0.500 μM<IC50<1 μM; D=1 μM<IC50<100 μM; E=IC50>100 μM

Sequence of Recombinant human HSD17B13 (Q7Z5P4 20-300): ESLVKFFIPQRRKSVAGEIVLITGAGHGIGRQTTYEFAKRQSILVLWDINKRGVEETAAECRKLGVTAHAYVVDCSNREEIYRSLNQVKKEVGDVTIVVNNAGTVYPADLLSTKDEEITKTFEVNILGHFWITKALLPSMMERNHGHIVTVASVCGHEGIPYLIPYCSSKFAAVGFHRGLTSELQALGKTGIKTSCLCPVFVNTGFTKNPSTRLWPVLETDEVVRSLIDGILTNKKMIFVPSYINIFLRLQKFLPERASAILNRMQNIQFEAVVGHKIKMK

SMILES | IC50
CCCCC[C@H]1CC[C@H](c2ccc(-c3ncc(S(=O)(=O)Nc4cc(F)c(C(=O)O)cc4OC)s3)cc2)CC1 [Example 628] | 100 to 500 nM
CCCCC[C@H]1CC[C@H](c2ccc(-c3nc(S(=O)(=O)Nc4ccc(C(=O)O)cc4OC)cs3)cc2)CC1 [Example 508] | < 100 nM
O=C(O)c1ccc2sc(NS(=O)(=O)c3cnc(-c4ccc(F)cc4)s3)nc2c1 [Example 388, 2-((2-(4-fluorophenyl)thiazole)-5-sulfonamido)benzo[d]thiazole-5-carboxylic acid] | 1000 to 100000 nM
COc1cc(C(=O)O)c(F)cc1NS(=O)(=O)c1ccc(-c2ccc(Cl)cc2)s1 [Example 232] | < 100 nM
COc1cc(C(=O)O)ccc1NS(=O)(=O)N1Cc2nc(-c3ccc4c(c3)CCCC4)sc2C1 [Example 386] | 100 to 500 nM
O=C(O)C1CCCN(S(=O)(=O)c2cnc(-c3ccc(F)cc3)s2)C1 (centres unmarked) [Example 65] | > 100000 nM
COc1cc(C(=O)O)ccc1NS(=O)(=O)c1ccc2ccc(S(=O)(=O)Nc3ccc(C(=O)O)cc3OC)cc2c1 [Example 162] | 100 to 500 nM
COc1cc(C(=O)O)ccc1NS(=O)(=O)c1coc(-c2ccc(C3CCCCC3)cc2)n1 [Example 419] | 100 to 500 nM
COc1cc(C(=O)O)c(F)cc1NS(=O)(=O)c1coc(-c2ccc(C3=CCC4(CC3)OCCO4)cc2)n1 [Example 617] | < 100 nM
COc1cc(C(=O)O)ccc1NS(=O)(=O)c1csc(C#Cc2ccc(OC)c(OC(F)(F)F)c2)n1 [Example 395] | < 100 nM
COc1cc(C(=O)O)ccc1NS(=O)(=O)c1csc(-c2ccc(-c3ccc4c(c3)OCCO4)cc2)n1 [Example 382] | < 100 nM
COc1cc(C(=O)O)ccc1NS(=O)(=O)c1csc(-c2ccccc2OC)n1 [Example 141] | 500 to 1000 nM
O=S(=O)(Nc1ccc(CO)cc1)c1cnc(-c2ccc(F)cc2)s1 [Example 36, 2-(4-fluorophenyl)-N-(4-(hydroxymethyl)phenyl)thiazole-5-sulfonamide] | 1000 to 100000 nM
COc1nc2c(cc1C(=O)O)CN(S(=O)(=O)c1ccc(F)cc1)CC2 [Example 8, 6-((4-fluorophenyl)sulfonyl)-2-methoxy-5,6,7,8-tetrahydro-1,6-naphthyridine-3-carboxylic acid] | > 100000 nM
C=C(COC)c1ccc(-c2nc(S(=O)(=O)Nc3ccc(C(=O)O)cc3OC)cs2)cc1 [Example 406, 3-methoxy-4-((2-(4-(3-methoxyprop-1-en-2-yl)phenyl)thiazole)-4-sulfonamido)benzoic acid] | 100 to 500 nM
COc1cc(C(=O)O)c(F)cc1NS(=O)(=O)c1csc(-c2ccc(-c3ccccn3)cc2)n1 [Example 635] | 100 to 500 nM
CCC1CC=C(c2ccc(-c3nc(S(=O)(=O)Nc4cc(F)c(C(=O)O)cc4OC)co3)cc2)CC1 (centres unmarked) [Example 494] | < 100 nM
COc1cc(C(=O)O)c(F)cc1NS(=O)(=O)c1csc(-c2ccc(C3CCC(C)(C)CC3)cc2OC)n1 [Example 539] | < 100 nM

SMILES | IC50
COc1cc(C(=O)O)ccc1NS(=O)(=O)c1csc(-c2ccc(-c3ccc(-c4ccc5c(c4)OCCO5)cc3)cc2)n1 [Example 383] | < 100 nM
COc1cc(C(=O)O)c(F)cc1NS(=O)(=O)c1cnc(-c2ccc([C@H]3CC[C@H](C(F)(F)F)CC3)cc2)s1 [Example 725] | < 100 nM
COc1cc(C(=O)O)ccc1NS(=O)(=O)c1coc(-c2ccc([C@H]3CC[C@@H](C(F)(F)F)CC3)cc2)n1 [Example 609] | < 100 nM
CCC[C@H]1CC[C@H](c2ccc(-c3nc(S(=O)(=O)Nc4cc(F)c(C(=O)O)cc4OC)cs3)cc2)CC1 [Example 715] | < 100 nM
COc1cc(C(=O)O)c(F)cc1NS(=O)(=O)c1csc(-c2ccc(C3CCC4(CC3)CC4)cc2)n1 [Example 778] | < 100 nM
CC[C@H]1CC[C@H](c2ccc(-c3nc(S(=O)(=O)Nc4cc5nc[nH]c(=O)c5cc4OC)cs3)cc2)CC1 [Example 575] | 1000 to 100000 nM
COc1cc(C(=O)O)ccc1NS(=O)(=O)c1csc(-c2ccc(N3CCOCC3)cc2)n1 [Example 303] | 1000 to 100000 nM
COc1cc(C(=O)O)c(F)cc1NS(=O)(=O)c1csc(-c2ccc(C3=CCC(C)(C)CC3)c(C(F)(F)F)c2)n1 [Example 515] | < 100 nM
COc1cc(C(=O)O)c(F)cc1NS(=O)(=O)c1csc(-c2ccc(C3CCC(C)(C)CC3)cn2)n1 [Example 573] | 100 to 500 nM
O=C(O)c1cnc(NS(=O)(=O)c2cnc(-c3ccc(F)cc3)s2)o1 [Example 104] | 1000 to 100000 nM
O=S(=O)(Nc1ccc(-c2nnn[nH]2)cc1)c1cnc(-c2ccc(F)cc2)s1 [Example 34] | 1000 to 100000 nM
COc1cc(C(=O)O)ccc1NS(=O)(=O)c1ccc(-c2ccc(C(F)(F)F)cc2)s1 [Example 178] | 100 to 500 nM
O=C(O)C12CC(NS(=O)(=O)c3cnc(-c4ccc(F)cc4)s3)(C1)C2 [Example 68] | > 100000 nM
COc1cc(C(=O)O)c(F)cc1NS(=O)(=O)c1csc(-c2ccc(C3CCC(C)(C)CC3)cc2C2CC2)n1 [Example 547] | 100 to 500 nM
COc1cc(C(=O)O)c(F)cc1NS(=O)(=O)c1csc(-c2ccc([C@H]3CC[C@H](C(F)(F)F)CC3)cc2C(F)(F)F)n1 [Example 607] | < 100 nM
COc1cc(C(=O)O)ccc1NS(=O)(=O)c1csc(-c2cccnc2)n1 [Example 143] | 1000 to 100000 nM
CCC[C@H]1CC[C@H](c2ccc(-c3nc(S(=O)(=O)Nc4ccc(C(=O)O)cc4OC)cs3)cc2)CC1 [Example 350] | < 100 nM
COc1cc(C(=O)O)c(F)cc1NS(=O)(=O)c1cnc(-c2ccc([C@H]3CC[C@H](C)CC3)cc2)s1 [Example 627] | < 100 nM

Continued, values first:

IC50 | SMILES
100 to 500 nM | COc1cc(C(=O)O)ccc1NS(=O)(=O)c1coc(-c2ccc(C3=CCC(C)(C)CC3)cc2)n1 [Example 464]
100 to 500 nM | COc1ccc(-c2cccc(-c3ccc(S(=O)(=O)Nc4ccc(C(=O)O)cc4OC)s3)c2)cc1 [Example 253]
< 100 nM | COc1cc(C(=O)O)ccc1NS(=O)(=O)c1csc(C#CC2CCCC2)n1 [Example 217]
< 100 nM | COc1cc(C(=O)O)c(F)cc1NS(=O)(=O)c1csc(-c2ccc(C3=CCC(C(C)C)CC3)c(OC(C)C)c2F)n1 (centres unmarked) [Example 584]
1000 to 100000 nM | COc1cc(C(=O)O)ccc1NS(=O)(=O)C1CCN(c2ncccn2)CC1 [Example 318]
500 to 1000 nM | COc1cc(C(=O)O)c(F)cc1NS(=O)(=O)c1csc(-c2ccc(C3CCC(C)(C)CC3)c(OC)c2)n1 [Example 525]
100 to 500 nM | COc1cc(C(=O)O)c(F)cc1NS(=O)(=O)c1csc(-c2ccc(-c3ccc([C@H]4CC[C@@H](C(C)(C)C)CC4)cc3C(F)(F)F)cc2C(F)(F)F)n1 [Example 783]
< 100 nM | COc1cc(C(=O)O)ccc1NS(=O)(=O)N1Cc2nc(C3CCC(c4ccccc4)CC3)sc2C1 (centres unmarked) [Example 376, 3-methoxy-4-((2-(4-phenylcyclohexyl)-5,6-dihydro-4H-pyrrolo[3,4-d]thiazole)-5-sulfonamido)benzoic acid]
< 100 nM | COc1cc(C(=O)O)ccc1NS(=O)(=O)c1csc(C#Cc2cccc(OC(F)(F)F)c2)n1 [Example 239]
1000 to 100000 nM | COc1cc(C(=O)O)ccc1NS(=O)(=O)c1csc(N2CCN(C(=O)c3ccccc3)CC2)n1 [Example 287]
500 to 1000 nM | COc1cc(C(=O)O)c(F)cc1NS(=O)(=O)c1csc(-c2ccc(C3CCC(C)(C)CC3)c(C(N)=O)c2)n1 [Example 533]
> 100000 nM | O=C(O)c1ccc2c(c1)CN(S(=O)(=O)c1ccc(F)cc1)C2 [Example 11]
100 to 500 nM | COc1cc(C(=O)O)c(F)cc1NS(=O)(=O)c1csc(-c2ccc(-c3ccc(-c4ccc(C(F)(F)C(F)(F)F)cc4)cc3C(F)(F)F)cc2C(F)(F)F)n1 [Example 788]
1000 to 100000 nM | CNS(=O)(=O)c1cc(OC)c(NS(=O)(=O)c2cnc(-c3ccc(F)cc3)s2)cc1C [Example 121]
500 to 1000 nM | COc1cc(C(=O)O)ccc1NS(=O)(=O)c1cccc(-c2ccc(F)cc2)n1 [Example 411, 4-((6-(4-fluorophenyl)pyridine)-2-sulfonamido)-3-methoxybenzoic acid]
100 to 500 nM | COc1cc(C(=O)O)c(F)cc1NS(=O)(=O)c1cnn(-c2ccc([C@H]3CC[C@@H](C(C)C)CC3)cc2)c1 [Example 687]
< 100 nM | COc1cc(C(=O)O)ccc1NS(=O)(=O)c1csc(-c2ccccc2)n1 [Example 102]

Source: patent US12384753B2, “17-beta-hydroxysteroid dehydrogenase type 13 inhibitors and methods of use thereof” (Enanta Pharmaceuticals, Inc., priority 2021, dated 2025)
